Key:
CYP3A = assay: CYP activity in liver S9 of treated mice: midazolam 1'-hydroxylation; conditions: liver S9, KTC 60 mg/kg i.p. once, midazolam 5 µM, n = 3
Protocol: (§1) Twenty-four hours after the last treatment, the liver was excised and homogenized with three volumes of ice-cold 0.1 M potassium phosphate buffer (pH 7.4). The supernatant fraction was then separated as the S9 fraction from the mixture by centrifugation at 9000× g at 4 °C and stored at −80 °C until use.
(§2) To characterize the CYP activities in the harvested livers, phenacetin O-demethylation (using 80 µM of phenacetin) for CYP1A, dextromethorphan O-demethylation (using 5 µM of dextromethorphan) for CYP2D, and midazolam 1’-hydroxylation (using 5 µM of midazolam) for CYP3A were used as cocktail probe reactions. The level of protein in the S9 fraction was determined by Bradford assay. The cocktail probes were then incubated with 10 µL of each S9 fraction, potassium phosphate buffer (pH 7.4), and an NADPH generating system (NGS) in a final volume of 100 µL. After incubation for 30 min at 37 °C, ice-cold ACN containing 0.1% formic acid and IS (5 µM) was added to stop the reaction. Samples were then vortexed and centrifuged at 13,000× g for 10 min at 4 °C. Finally, the supernatants were transferred to LC-MS/MS vials for analysis.

CYP2D = assay: CYP activity in liver S9 of treated mice: dextromethorphan O-demethylation; format: in vivo, Male ICR mice; conditions: liver S9, dextromethorphan 5 µM
Protocol: as §1, §2

[1] = Plasma pharmacokinetics of LOX, cis-LOX and trans-LOX after oral LOX in mice pretreated with DEX, KTC or vehicle; format: in vivo, Male ICR mice; conditions: mouse plasma, LOX 20 mg/kg oral, mean ± SE, n = 3
Protocol: The acclimatized animals were divided into eight groups, with each group containing 3 mice: groups I and II, vehicle (corn oil); groups III and IV, DEX-treated; groups V and VI, vehicle (10% Ethanol); and groups VII and VIII, KTC-treated group. […] Then, animals were fasted for 12 hours with free access to water before starting the experiment. […]
After the oral administration of LOX, blood from groups I, III, V, and VII was collected from the tail at 0, 5, 10, 15, 30, 60, 120, and 240 min post-administration and placed into sodium heparin-containing tubes. After the last blood collection, the mice were sacrificed by cervical dislocation. Plasma was then prepared by centrifuging the blood at 4000× g for 15 min at 4 °C and stored at −80 °C until analysis. For analysis, each sample was prepared by mixing plasma (10 µL) and 90 µL of ACN containing 0.1% formic acid and 5 µM of tolbutamide as an internal standard (IS). […] Finally, 10 µL of sample supernatant was injected into the LC-MS/MS system. The PK parameters (the maximum plasma concentration [Cmax], time to reach the maximum plasma concentration [Tmax], elimination half-life [T1/2], and area under the plasma concentrations [AUC]) were analyzed by WinNonlin software (Version 2.1, Scientific Consulting, Louisville, KY, USA).
A Shimadzu Prominence UFLC system (Kyoto, Japan) connected to a TSQ vantage triple quadrupole mass spectrometer with a HESI-II spray source incorporated with a DGU-20A5 degasser, an LC-20AD pump, a SIL-20A autosampler, and a CTO-20A column oven was used for the analyses. A shim-pack GIS C18 column (150 × 3.0 mm, […]) was used to separate analytes in the samples. Mobile phases A and B were composed of water with formic acid and ACN with 0.1% formic acid, respectively, and the flow rate was 0.50 mL/min at 40 °C. The gradient conditions were as follows: 20% of B between 0 and 0.25 min, 20–80% of B between 0.25 and 9.75 min, 80–20% of B between 9.75 and 10 min, and 20% of B between 10 and 13 min. The MS was operated under the following conditions: electrospray ionization in negative mode at 3.0 kV, capillary temperature at 350 °C, vaporizer temperature at 300 °C, sheath gas pressure at 35 Arb, and auxiliary gas pressure at 10 Arb. Finally, Xcalibur software (Thermo Fisher Scientific Inc., Waltham, MA, USA) was used for data analysis.

[2] = Relative concentration of LOX and its metabolites in hepatic portal vein plasma 10 min post-LOX (HRMS); format: in vivo, Male ICR mice; conditions: hepatic portal vein plasma 10 min after LOX 20 mg/kg oral, n = 3; for Relative concentration in plasma (DEX average % of area, VH corn oil = 100): DEX 40 mg/kg i.p. 3 days; for Relative concentration in plasma (KTC average % of area, VH 10% ethanol = 100): KTC 60 mg/kg i.p. single dose
Protocol: The acclimatized animals were divided into eight groups, with each group containing 3 mice: groups I and II, vehicle (corn oil); groups III and IV, DEX-treated; groups V and VI, vehicle (10% Ethanol); and groups VII and VIII, KTC-treated group. […] Then, animals were fasted for 12 hours with free access to water before starting the experiment. After fasting, LOX (20 mg/kg) was administered orally to […].
Similarly, blood from groups II, IV, VI, and VIII was collected from the hepatic portal vein 10 min post-LOX administration to identify metabolites of LOX and to analyze drug–drug interactions. Plasma from these samples was prepared as explained above. Then, 300 µL of ACN having 0.1% formic acid and 5 µM of the IS were mixed with 100 µL of each plasma sample. […] Supernatants were transferred into tubes and dried using a Labconco Speed Vac (Labconco Corporation, Kansas City, MO, USA). […] Each supernatant was transferred into an LCMS vial, and 5 µL were injected into a high-resolution mass spectrometer (HRMS).
HRMS coupled with ultrahigh performance liquid chromatography (UHPLC) was used to detect hydroxy-LOX and other metabolites of LOX. The UHPLC system, Dionex Ultimate 3000 (Dionex Softron GmbH, Germering, Germany) consisted of an HPG-3200SD Standard binary pump, a WPS 3000 TRS analytical autosampler, and a TCC-3000 SD column compartment. In this experiment, the HRMS was a Q Exactive Focus quadrupole-Orbitrap MS (Thermo Fisher Scientific, Bremen, Germany) equipped with a heated electrospray ionization (HESI-II) ion probe.
LOX was detected as a deprotonated ion [M-H]^− at m/z 245.1175 in negative ion mode. Therefore, negative ion mode was used with the following optimized conditions for LOX: spray voltage of 2.5 kV, capillary temperature of 320 °C, auxiliary gas at 12 aux unit, aux gas heater temperature of 200 °C, sheath gas at 35 aux units, and S-lens RF level of 50. LOX and its metabolites were separated using a 150 mm × 2.1 mm, 2.6-μm reverse-phase liquid chromatography column, Kinetex® C18 column (Phenomenex, CA, USA) at 40 °C. Furthermore, MS-grade solvents were used as the mobile phase in gradient elution mode: 0.1% aqueous formic acid as Solvent A and 0.1% formic acid in ACN as Solvent B. The flow was set to 0.22 mL/min with a gradient condition of Solvent B as 10% between 0 and 0.5 min, 10–50% between 0.5 and 21.5 min, 50–95% between 21.5 and 22.5 min, 95% between 22.5 and 25.5 min, 95–10% between 25.5 and 25.6 min, and 10% between 25.6 and 30 min.

CYP1A = conditions: liver S9, phenacetin 80 µM
Protocol: To characterize the CYP activities in the harvested livers, phenacetin O-demethylation (using 80 µM of phenacetin) for CYP1A, dextromethorphan O-demethylation (using 5 µM of dextromethorphan) for CYP2D, and midazolam 1’-hydroxylation (using 5 µM of midazolam) for CYP3A were used as cocktail probe reactions [21, 22]. The level of protein in the S9 fraction was determined by Bradford assay [23]. The cocktail probes were then incubated with 10 µL of each S9 fraction, potassium phosphate buffer (pH 7.4), and an NADPH generating system (NGS) in a final volume of 100 µL. After incubation for 30 min at 37 °C, ice-cold ACN containing 0.1% formic acid and IS (5 µM) was added to stop the reaction. Samples were then vortexed and centrifuged at 13,000× g for 10 min at 4 °C. Finally, the supernatants were transferred to LC-MS/MS vials for analysis.

[3] = pretreated DEX 40 mg/kg i.p. 3 days
[4] = pretreated KTC 60 mg/kg i.p. single dose
[5] = pretreated VH (10% ethanol) i.p. single dose
[6] = pretreated VH (corn oil) i.p. 3 days

CC(=O)N1CCN(c2ccc(OCC3COC(Cn4ccnc4)(c4ccc(Cl)cc4Cl)O3)cc2)CC1 (stereo not shown) [KTC, ketoconazole]
Effect on the metabolism of CYP3A4 substrate (midazolam) compared to the VH group (CYP3A): significantly decreased | Metabolic activity of other CYP enzymes (CYP2D, dextromethorphan O-demethylation), VH vs treated (CYP2D): unaffected

CC(C(=O)O)c1ccc(CC2CCCC2O)cc1 (stereo not drawn) [cis-LOX]
AUC(0–60) [1, 3]: 29.9 ± 4.4 µg·min/mL | AUC(0–∞) [1, 3]: 31.5 ± 4.4 µg·min/mL | Cmax [1, 3]: 1100 ± 200 ng/mL | T1/2 (elimination half-life) [1, 3]: 13.9 ± 0.6 min | Tmax [1, 3]: 10.0 ± 1.0 min | AUC(0–60) [1, 4]: 49.0 ± 5.9 µg·min/mL | AUC(0–∞) [1, 4]: 51.9 ± 6.1 µg·min/mL | Cmax [1, 4]: 1600 ± 100 ng/mL | T1/2 (elimination half-life) [1, 4]: 13.4 ± 0.6 min | Tmax [1, 4]: 11.6 ± 0.8 min | AUC(0–60) [1, 5]: 36.0 ± 3.9 µg·min/mL | AUC(0–∞) [1, 5]: 38.4 ± 4.4 µg·min/mL | Cmax [1, 5]: 1200 ± 100 ng/mL | T1/2 (elimination half-life) [1, 5]: 13.3 ± 0.9 min | Tmax [1, 5]: 13.3 ± 0.8 min | AUC(0–60) [1, 6]: 72.7 ± 12.4 µg·min/mL | AUC(0–∞) [1, 6]: 75.8 ± 12.8 µg·min/mL | Cmax [1, 6]: 2400 ± 300 ng/mL | T1/2 (elimination half-life) [1, 6]: 12.3 ± 0.3 min | Tmax [1, 6]: 10.4 ± 0.7 min | Relative concentration in plasma (DEX average % of area, VH corn oil = 100) [2]: 61.9 ± 3.9% | Relative concentration in plasma (DEX average % of area, VH corn oil = 100) ([2]; listed as M2): 61.91% | Relative concentration in plasma (KTC average % of area, VH 10% ethanol = 100) [2]: 173.1 ± 5.8% | Relative concentration in plasma (KTC average % of area, VH 10% ethanol = 100) ([2]; listed as M2): 173.08%

C[C@@H]1C[C@H]2[C@@H]3CCC4=CC(=O)C=C[C@]4(C)[C@@]3(F)[C@@H](O)C[C@]2(C)[C@@]1(O)C(=O)CO [DEX, dexamethasone]
Metabolic activity of other CYP enzymes (CYP2D, dextromethorphan O-demethylation), VH vs treated (CYP2D): unaffected | Metabolic activity of other CYP enzymes (CYP1A, phenacetin O-demethylation), VH vs treated (CYP1A): unaffected

— publication PMC6781309, “Assessing Drug Interaction and Pharmacokinetics of Loxoprofen in Mice Treated with CYP3A Modulators” (Pharmaceutics, 2019)
